Assay results published in patent US20240342111A1, “ISOMER-SPECIFIC NEUROPROTECTIVE EFFECT OF NATURAL RESERVATROL” (priority 2021, published 2024).

Key:
TyrRS [1] = test: Immunostaining of neuronal TyrRS under neurotoxic agents (NMDA, MPP+); assay type: cell-based, rat; conditions: neurotoxic agent alone (50 μM NMDA, 100 μM MPP+), 4 hours
[2] = test system: ataxia telangiectasia mutated (ATM) kinase; conditions: low dose 5 μM; cited from earlier work
TyrRS [3] = biological target: T1, TyrRS (Homo sapiens, UniProt P54577); conditions: low dose ≤5 μM, HeLa cells; cited from earlier work
T1 construct: host or cells: HeLa cells

pSer10-H3 = test: Immunostaining of pSer10-H3 (ADP-ribosylation dependent DNA repair marker); assay type: cell-based, rat; conditions: Aβ 50 nM, 24 hours
Description: Ac-K56-H3 is a marker of genomic stability, see Driscoll, R., Hudson, A. & Jackson, S. P. Yeast Rtt109 promotes genome stability by acetylating histone H3 on lysine 56. Science 315, 649-652, doi:10.1126/science.1135862 (2007), and DNA damage, see Tjeertes, J. V., Miller, K. M. & Jackson, S. P. Screen for DNA-damage-responsive histone modifications identifies H3K9Ac and H3K56Ac in human cells. EMBO J 28, 1878-1889, doi:10.1038/emboj.2009.119 (2009), and inhibition of PARP1 causes the downregulation of RAD51, see Hegan, D. C. et al. Inhibition of poly(ADP-ribose) polymerase down-regulates BRCA1 and RAD51 in a pathway mediated by E2F4 and p130. Proc Natl Acad Sci U S A 107, 2201-2206, doi:10.1073/pnas.0904783107 (2010), and induces neurotoxicity, see Diaz-Hernandez, J. I., Moncada, S., Bolanos, J. P. & Almeida, A. Poly(ADP-ribose) polymerase-1 protects neurons against apoptosis induced by oxidative stress. Cell Death Differ 14, 1211-1221, doi:10.1038/sj.cdd.4402117 (2007) and Midorikawa, R., Takei, Y. & Hirokawa, N. KIF4 motor regulates activity-dependent neuronal survival by suppressing PARP-1 enzymatic activity. Cell 125, 371-383, doi:10.1016/j.cell.2006.02.039 (2006). […] The western blot images of the protein levels of HPF1 was quantified using ImageJ.
Coverslips were then mounted using DAPI (4′,6-diamidino-2-phenylindole)-supplemented mounting medium, Prolong Gold Antifade (Invitrogen) imaged with Leica DMI6000 epifluorescent microscope at 63×magnification.

TyrRS [4] = biological target: T2, TyrRS (Rattus norvegicus, UniProt Q4KM49); test: Immunostaining of neuronal TyrRS, RSV alone or in combination with Aβ; assay type: cell-based; conditions: Aβ 50 nM alone, 16 hours
T2 construct: Primary cortical neuron cultures were obtained from E18 Sprague Dawley rats' cortices; endogenous in cells; host or cells: rat primary cortical neurons (E18 Sprague Dawley)
T2 sequence (Q4KM49 1-528): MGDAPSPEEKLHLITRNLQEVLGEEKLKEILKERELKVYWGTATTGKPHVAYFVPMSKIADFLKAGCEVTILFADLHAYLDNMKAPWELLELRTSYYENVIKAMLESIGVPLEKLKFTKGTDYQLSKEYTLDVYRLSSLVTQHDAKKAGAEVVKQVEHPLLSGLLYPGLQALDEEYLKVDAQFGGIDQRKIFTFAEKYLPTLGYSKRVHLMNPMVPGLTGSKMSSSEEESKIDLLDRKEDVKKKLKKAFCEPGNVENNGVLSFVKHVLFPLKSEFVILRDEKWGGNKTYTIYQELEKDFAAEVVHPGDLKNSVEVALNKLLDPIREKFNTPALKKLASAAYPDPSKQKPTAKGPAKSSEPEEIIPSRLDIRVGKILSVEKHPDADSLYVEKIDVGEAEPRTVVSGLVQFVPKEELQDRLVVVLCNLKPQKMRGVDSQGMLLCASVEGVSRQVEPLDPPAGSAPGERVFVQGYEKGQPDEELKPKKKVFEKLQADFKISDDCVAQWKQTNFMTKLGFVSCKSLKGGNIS

[5] = test system: phenyl-tRNA synthetase beta (PheRSβ); test: Immunoblot for PheRSβ after treatment with Aβ42; assay type: cell-based, rat; conditions: different doses of Aβ42, 24 hours
Description: (§1) Representative immunostaining images (scale bar, 20 μm) for neuronal TyrRS (spectral images) after treatment with neurotoxic agents result in TyrRS downregulation. […] The protein level of TyrRS was quantified by measuring the average intensity of fluorescence staining with regions defined by MAP2 (neurite marker) staining across n=3 experiments using n≥20 neurons for quantification per treatment condition. […] Rat cortical neurons (DIV 9) were treated with different doses of Aβ42 for 24 hours. All graphical representations depict mean±SEM from n=3 experiments with statistical significance calculated using paired Student's t-test.
(§2) Cultured neurons (DIV 9-10) were washed once with cold 1×PBS and lysed in cell lysis buffer (20 mM Tris-HCl (pH 7.5), 150 mM NaCl, 1 mM Na2EDTA, 1 mM EGTA, 1% Triton, 2.5 mM sodium pyrophosphate, 1 mM beta-glycerophosphate, 1 mM Na3VO4, 1 μg/ml leupeptin supplemented with protease inhibitor). The lysates were centrifuged at 10,000 RPM for 15 minutes at 4° C. to separate the chromatin-bound and soluble fractions. Lysates were quantified using Bio-Rad Protein Assay, and an equal amount of protein was loaded onto a 4 to 12% gradient gel (NuPAGE-Invitrogen). […] Quantification for the western blots was done using ImageJ (Version 1.53c).

TyrRS [6] = test: Immunoblot for TyrRS after treatment with Aβ42; assay type: cell-based, rat; conditions: different doses of Aβ42, 24 hours
Description: as §1, §2

T1 sequence (P54577 whole entry): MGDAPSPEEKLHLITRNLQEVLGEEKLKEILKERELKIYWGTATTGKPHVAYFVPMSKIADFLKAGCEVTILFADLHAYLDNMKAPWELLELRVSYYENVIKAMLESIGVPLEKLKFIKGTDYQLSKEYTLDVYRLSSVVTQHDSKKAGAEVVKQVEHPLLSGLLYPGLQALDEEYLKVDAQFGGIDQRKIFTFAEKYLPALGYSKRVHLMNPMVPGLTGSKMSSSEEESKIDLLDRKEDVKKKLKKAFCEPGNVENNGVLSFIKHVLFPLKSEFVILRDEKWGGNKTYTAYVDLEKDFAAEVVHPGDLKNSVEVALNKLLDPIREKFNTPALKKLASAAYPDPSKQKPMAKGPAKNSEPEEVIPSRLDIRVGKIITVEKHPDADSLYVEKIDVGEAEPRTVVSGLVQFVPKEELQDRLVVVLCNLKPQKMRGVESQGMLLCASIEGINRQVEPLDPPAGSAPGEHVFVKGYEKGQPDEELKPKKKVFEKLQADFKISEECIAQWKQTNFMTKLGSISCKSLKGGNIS

C[n+]1ccc(-c2ccccc2)cc1 [MPP^+, 1-methyl-4-phenylpyridinium]
neuronal protein levels of TyrRS (TyrRS [1]): downregulate the neuronal protein levels of TyrRS

CN[C@H](CC(=O)O)C(=O)O [NMDA, N-Methyl-D-aspartate]
neuronal protein levels of TyrRS (TyrRS [1]): downregulate the neuronal protein levels of TyrRS

Oc1ccc(C=Cc2cc(O)cc(O)c2)cc1 [RSV, Resveratrol]
ATM kinase activation [2]: activate
protein levels of TyrRS (TyrRS [3]): upregulated the protein levels of TyrRS

human amyloid β protein fragment 1-42 [Aβ]
pSer10-H3 levels (pSer10-H3): upregulation
TyrRS protein levels (TyrRS [4]): downregulation
PheRSβ protein level (immunoblot) [5]: did not downregulate
TyrRS protein level (immunoblot) (TyrRS [6]): downregulates TyrRS in a dose-dependent manner
